Measurements taken from ChEMBL document CHEMBL5291721, “A preclinical secondary pharmacology resource illuminates target-adverse drug reaction associations of marketed drugs” (Nat Commun, 2023).

Legend:
[1] = biological target: 5-hydroxytryptamine receptor 2B (Homo sapiens, UniProt P41595); type: functional, cell-based
Vasopressin V1a receptor = Vasopressin V1a receptor (Homo sapiens, UniProt P37288)
[2] = biological target: T1, Gastrin/cholecystokinin type B receptor (Homo sapiens, UniProt P32239)
T1 sequence (P32239 whole entry): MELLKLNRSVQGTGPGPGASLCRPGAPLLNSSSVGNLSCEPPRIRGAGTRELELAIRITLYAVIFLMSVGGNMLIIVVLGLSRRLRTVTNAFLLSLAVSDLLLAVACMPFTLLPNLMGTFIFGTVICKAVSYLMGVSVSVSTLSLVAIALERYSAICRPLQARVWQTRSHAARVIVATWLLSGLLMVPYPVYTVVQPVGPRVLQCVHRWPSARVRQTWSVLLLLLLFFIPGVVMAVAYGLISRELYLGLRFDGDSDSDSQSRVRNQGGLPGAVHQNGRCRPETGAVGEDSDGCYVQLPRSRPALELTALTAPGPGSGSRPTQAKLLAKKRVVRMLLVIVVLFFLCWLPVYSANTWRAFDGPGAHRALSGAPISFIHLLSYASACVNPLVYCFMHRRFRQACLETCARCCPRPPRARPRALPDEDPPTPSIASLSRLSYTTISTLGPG

Estrogen receptor = biological target: T2, Estrogen receptor (Homo sapiens, UniProt P03372)
T2 sequence (P03372 whole entry): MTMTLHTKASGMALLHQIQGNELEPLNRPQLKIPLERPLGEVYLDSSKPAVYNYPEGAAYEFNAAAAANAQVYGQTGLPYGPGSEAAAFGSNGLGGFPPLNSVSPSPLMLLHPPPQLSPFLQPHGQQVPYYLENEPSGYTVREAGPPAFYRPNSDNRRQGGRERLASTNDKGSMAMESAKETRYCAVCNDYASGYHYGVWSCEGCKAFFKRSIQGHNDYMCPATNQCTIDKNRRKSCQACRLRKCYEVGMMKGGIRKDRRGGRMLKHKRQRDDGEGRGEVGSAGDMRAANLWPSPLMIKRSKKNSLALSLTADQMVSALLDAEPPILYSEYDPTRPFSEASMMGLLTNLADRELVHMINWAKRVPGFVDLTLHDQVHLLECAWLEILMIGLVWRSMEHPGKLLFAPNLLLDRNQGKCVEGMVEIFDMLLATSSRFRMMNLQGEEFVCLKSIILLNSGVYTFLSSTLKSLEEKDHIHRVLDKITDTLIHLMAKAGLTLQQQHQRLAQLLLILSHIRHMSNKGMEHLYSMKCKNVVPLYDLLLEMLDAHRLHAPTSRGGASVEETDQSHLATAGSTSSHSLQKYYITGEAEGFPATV

[3] = biological target: T3, Muscarinic acetylcholine receptor M2 (Homo sapiens, UniProt P08172); type: functional, cell-based
T3 sequence (P08172 whole entry): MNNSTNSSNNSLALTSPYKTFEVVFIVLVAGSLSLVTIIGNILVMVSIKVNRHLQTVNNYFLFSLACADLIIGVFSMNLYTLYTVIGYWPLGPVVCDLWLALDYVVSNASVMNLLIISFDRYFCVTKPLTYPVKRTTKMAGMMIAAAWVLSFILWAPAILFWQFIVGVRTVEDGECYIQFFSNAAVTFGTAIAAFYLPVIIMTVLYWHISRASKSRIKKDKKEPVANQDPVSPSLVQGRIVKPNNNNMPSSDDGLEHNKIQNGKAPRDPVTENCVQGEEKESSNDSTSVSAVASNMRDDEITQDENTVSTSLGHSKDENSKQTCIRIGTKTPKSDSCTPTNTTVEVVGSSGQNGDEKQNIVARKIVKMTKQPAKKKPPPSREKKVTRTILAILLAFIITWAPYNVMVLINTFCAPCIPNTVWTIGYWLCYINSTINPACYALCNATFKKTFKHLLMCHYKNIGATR
Note: assay procedure not described here.

Chain of 5-hydroxytryptamine receptor 2B (P41595 whole entry): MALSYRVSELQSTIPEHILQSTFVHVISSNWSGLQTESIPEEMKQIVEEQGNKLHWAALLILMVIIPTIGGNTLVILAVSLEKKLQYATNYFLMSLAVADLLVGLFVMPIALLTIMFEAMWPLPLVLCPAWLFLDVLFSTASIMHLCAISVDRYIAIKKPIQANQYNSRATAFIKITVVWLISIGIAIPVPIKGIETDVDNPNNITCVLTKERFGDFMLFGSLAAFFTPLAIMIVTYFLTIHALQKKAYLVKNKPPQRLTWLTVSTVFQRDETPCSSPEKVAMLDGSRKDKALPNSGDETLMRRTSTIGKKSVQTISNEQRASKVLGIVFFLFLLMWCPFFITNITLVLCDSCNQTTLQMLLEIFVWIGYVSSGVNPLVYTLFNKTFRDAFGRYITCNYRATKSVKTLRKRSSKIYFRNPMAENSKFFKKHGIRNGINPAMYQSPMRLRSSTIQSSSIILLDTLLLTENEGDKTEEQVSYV
Chain of Vasopressin V1a receptor (P37288 whole entry): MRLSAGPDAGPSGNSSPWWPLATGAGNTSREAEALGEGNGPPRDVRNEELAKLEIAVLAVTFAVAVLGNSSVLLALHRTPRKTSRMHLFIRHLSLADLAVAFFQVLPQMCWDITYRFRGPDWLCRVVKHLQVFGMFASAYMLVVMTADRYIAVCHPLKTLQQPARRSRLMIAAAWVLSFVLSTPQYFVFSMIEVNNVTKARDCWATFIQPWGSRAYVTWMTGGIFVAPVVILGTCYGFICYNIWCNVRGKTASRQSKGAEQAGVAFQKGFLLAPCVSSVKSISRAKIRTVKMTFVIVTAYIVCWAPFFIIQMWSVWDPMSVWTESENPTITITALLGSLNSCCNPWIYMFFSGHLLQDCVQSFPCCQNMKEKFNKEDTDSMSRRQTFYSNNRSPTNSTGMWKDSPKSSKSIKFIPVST

## CC(C)N(CCNC(=O)CN1CCCC1=O)C(C)C
[1]
  AC50: > 30 µM

## CCC[C@H](NC(=O)[C@@H]1[C@H]2CCC[C@H]2CN1C(=O)[C@@H](NC(=O)[C@@H](NC(=O)c1cnccn1)C1CCCCC1)C(C)(C)C)C(=O)C(=O)NC1CC1
Vasopressin V1a receptor
  AC50: > 10 µM
[2]
  AC50: > 30 µM
Estrogen receptor
  AC50: > 30 µM

## CCOC(=O)[C@H](CCc1ccccc1)N[C@@H](C)C(=O)N(CC(=O)O)C1Cc2ccccc2C1
[1]
  AC50: > 30 µM

## C=CCSCC1Nc2cc(Cl)c(S(N)(=O)=O)cc2S(=O)(=O)N1 (stereo not drawn) [ALTHIAZIDE]
[1]
  AC50: > 30 µM

## CCN(CCCc1ccccc1)CCCc1ccccc1 [ALVERINE]
[1]
  AC50: > 30 µM

## CN1CCC(=C2c3ccccc3CCc3cccnc32)CC1 [AZATADINE]
Vasopressin V1a receptor
  AC50: > 30 µM
[2]
  AC50: > 30 µM
[3]
  AC50: 0.08 µM
Estrogen receptor
  AC50: > 30 µM

## CCCCC(=O)O[C@]1(C(=O)CO)[C@@H](C)C[C@H]2[C@@H]3CCC4=CC(=O)C=C[C@]4(C)[C@@]3(F)[C@@H](O)C[C@@]21C [BETAMETHASONE VALERATE]
[2]
  AC50: > 30 µM
[3]
  AC50: > 10 µM
Estrogen receptor
  AC50: > 30 µM

## COc1cc(N2CCC(N3CCN(C)CC3)CC2)ccc1Nc1ncc(Cl)c(Nc2ccccc2P(C)(C)=O)n1 [BRIGATINIB]
[1]
  AC50: > 30 µM

## CN(C)CCOC(c1ccccc1)c1ccc(Br)cc1 (stereo not drawn) [BROMODIPHENHYDRAMINE]
[1]
  AC50: > 30 µM

## CC1OC2(CS1)CN1CCC2CC1 (stereo not drawn) [CEVIMELINE]
Vasopressin V1a receptor
  AC50: > 10 µM
Estrogen receptor
  AC50: > 10 µM

## CNC1=Nc2ccc(Cl)cc2C(c2ccccc2)=[N+]([O-])C1 [CHLORDIAZEPOXIDE]
[2]
  AC50: > 30 µM
[3]
  AC50: > 10 µM
Estrogen receptor
  AC50: > 30 µM

## CC(=O)O[C@]1(C(C)=O)CC[C@H]2[C@@H]3C=C(Cl)C4=CC(=O)CC[C@]4(C)[C@H]3CC[C@@]21C [CHLORMADINONE ACETATE]
[1]
  AC50: > 30 µM

## NC(=O)OCC(O)COc1ccc(Cl)cc1 (stereo not drawn) [CHLORPHENESIN CARBAMATE]
[1]
  AC50: > 30 µM

## Cc1ccccc1N1CCN(CCc2nnc3n2CCCC3)CC1 [DAPIPRAZOLE]
[1]
  AC50: > 30 µM

## Nc1ncn([C@H]2C[C@H](O)[C@@H](CO)O2)c(=O)n1 [DECITABINE]
Vasopressin V1a receptor
  AC50: > 30 µM
[2]
  AC50: > 30 µM
[3]
  AC50: > 30 µM

## CC(C)(C)C(=O)OCC(=O)[C@H]1CC[C@H]2[C@@H]3CCC4=CC(=O)CC[C@]4(C)[C@H]3CC[C@]12C [DESOXYCORTICOSTERONE PIVALATE]
Vasopressin V1a receptor
  AC50: > 10 µM
[3]
  AC50: > 10 µM
Estrogen receptor
  AC50: > 30 µM

## CCN(CC)C(=S)S [DITIOCARB]
[1]
  AC50: > 30 µM

## C=C1CC[C@H](O)C/C1=C/C=C1\CCC[C@]2(C)[C@@H]([C@H](C)/C=C/[C@H](C)C(C)C)CC[C@@H]12 [ERGOCALCIFEROL]
[1]
  AC50: > 30 µM

## CCOC(=O)c1cncn1[C@H](C)c1ccccc1 [ETOMIDATE]
Vasopressin V1a receptor
  AC50: > 10 µM
[3]
  AC50: > 10 µM
Estrogen receptor
  AC50: > 10 µM

## CC(C(=O)O)c1ccc(-c2ccccc2)c(F)c1 (stereo not drawn) [FLURBIPROFEN]
Vasopressin V1a receptor
  AC50: > 10 µM
[3]
  AC50: > 10 µM
[1]
  AC50: > 30 µM
Estrogen receptor
  AC50: > 30 µM

## CCC1(c2ccccc2)CCC(=O)NC1=O (stereo not drawn) [GLUTETHIMIDE]
Vasopressin V1a receptor
  AC50: > 10 µM
[3]
  AC50: > 10 µM
Estrogen receptor
  AC50: > 10 µM

## CCC(=O)O[C@]1(C(=O)CCl)[C@@H](C)C[C@H]2[C@@H]3C[C@H](F)C4=CC(=O)C=C[C@]4(C)[C@@]3(F)[C@@H](O)C[C@@]21C [HALOBETASOL PROPIONATE]
[1]
  AC50: > 30 µM

## CC(N)Cc1ccc(O)cc1 (stereo not drawn) [HYDROXYAMPHETAMINE]
[1]
  AC50: > 30 µM

## Cc1cc(NC(=O)C2=C(O)c3ccccc3S(=O)(=O)N2C)no1 [ISOXICAM]
[1]
  AC50: > 30 µM

## COc1cc2c(cc1OC)CC(=O)N(CCCN(C)C[C@H]1Cc3cc(OC)c(OC)cc31)CC2 [IVABRADINE]
[1]
  AC50: > 30 µM

## CC(C)(C)NC[C@H](O)COc1cccc2c1CCCC2=O [LEVOBUNOLOL]
[1]
  AC50: > 30 µM

## C[C@H](Cc1ccc(O)c(O)c1)[C@@H](C)Cc1ccc(O)c(O)c1 [MASOPROCOL]
Vasopressin V1a receptor
  AC50: > 10 µM
[3]
  AC50: > 30 µM
Estrogen receptor
  AC50: 0.749 µM

## Cc1c(N(C)CS(=O)(=O)O)c(=O)n(-c2ccccc2)n1C [METAMIZOLE]
[1]
  AC50: > 30 µM

## CN1C(=O)/C(=N\NC(N)=S)c2ccccc21 [METHISAZONE]
[1]
  AC50: > 30 µM

## COC(=O)c1ccc(O)cc1 [METHYLPARABEN]
[1]
  AC50: > 30 µM

## O=[N+]([O-])c1ccc(O)c2ncccc12 [NITROXOLINE]
[3]
  AC50: > 30 µM
[1]
  AC50: > 30 µM

## CCCc1nc(C(C)(C)O)c(C(=O)O)n1Cc1ccc(-c2ccccc2-c2nnn[nH]2)cc1 [OLMESARTAN]
[1]
  AC50: > 30 µM

## NCC(CC(=O)O)c1ccccc1 (stereo not drawn) [PHENIBUT]
[1]
  AC50: > 30 µM

## CCCCC1C(=O)N(c2ccccc2)N(c2ccccc2)C1=O [PHENYLBUTAZONE]
Vasopressin V1a receptor
  AC50: > 30 µM
[2]
  AC50: > 30 µM
[3]
  AC50: > 10 µM
Estrogen receptor
  AC50: > 10 µM

## CC[C@@H]([C@H](C)O)n1ncn(-c2ccc(N3CCN(c4ccc(OC[C@@H]5CO[C@@](Cn6cncn6)(c6ccc(F)cc6F)C5)cc4)CC3)cc2)c1=O [POSACONAZOLE]
[1]
  AC50: > 30 µM

## CCCN[C@H]1CCc2nc(N)sc2C1 [PRAMIPEXOLE]
Vasopressin V1a receptor
  AC50: > 30 µM
[2]
  AC50: > 30 µM
[3]
  AC50: > 10 µM

## Cc1ncc(COP(=O)(O)O)c(C=O)c1O [PYRIDOXAL PHOSPHATE ANHYDROUS]
[1]
  AC50: > 30 µM

## COc1ccc(CN(CCN(C)C)c2ccccn2)cc1 [PYRILAMINE]
[1]
  AC50: > 30 µM

## c1ccc2c(c1)CCc1ccccc1N2C1CN2CCC1CC2 (stereo not drawn) [QUINUPRAMINE]
[1]
  AC50: > 30 µM

## CNCc1ccc(-c2[nH]c3cc(F)cc4c3c2CCNC4=O)cc1 [RUCAPARIB]
Vasopressin V1a receptor
  AC50: > 30 µM
[2]
  AC50: > 30 µM
[3]
  AC50: > 10 µM
Estrogen receptor
  AC50: > 30 µM

## C[C@H](Cc1cc2c(c(C(N)=O)c1)N(CCCO)CC2)NCCOc1ccccc1OCC(F)(F)F [SILODOSIN]
[1]
  AC50: > 30 µM

## CC1=CCC(C(C)(C)O)CC1O (stereo not drawn) [SOBREROL]
[1]
  AC50: > 30 µM

## Cc1noc(NS(=O)(=O)c2ccc(N)cc2)c1C [SULFISOXAZOLE]
[3]
  AC50: > 10 µM
Estrogen receptor
  AC50: > 10 µM

## CCOC(=O)N1CSC[C@H]1C(=O)O [TELMESTEINE]
[1]
  AC50: > 30 µM

## CCC(=O)O[C@H]1CC[C@H]2[C@@H]3CCC4=CC(=O)CC[C@]4(C)[C@H]3CC[C@]12C [TESTOSTERONE PROPIONATE]
Vasopressin V1a receptor
  AC50: > 10 µM
[3]
  AC50: > 10 µM
Estrogen receptor
  AC50: > 30 µM

## Clc1ccc(C(Cn2ccnc2)OCc2ccsc2Cl)c(Cl)c1 (stereo not drawn) [TIOCONAZOLE]
Vasopressin V1a receptor
  AC50: > 30 µM
[2]
  AC50: > 30 µM
[3]
  AC50: > 30 µM
Estrogen receptor
  AC50: > 10 µM

## Cc1cc2cc3c(C)cc(=O)oc3c(C)c2o1 [TRIOXSALEN]
[3]
  AC50: > 10 µM
Estrogen receptor
  AC50: > 30 µM

## CC(C)[C@H](N)C(=O)OCC(CO)OCn1cnc2c(=O)nc(N)[nH]c21 (stereo partly drawn) [VALGANCICLOVIR]
Vasopressin V1a receptor
  AC50: > 30 µM
[2]
  AC50: > 30 µM
[3]
  AC50: > 30 µM
Estrogen receptor
  AC50: > 30 µM

## CCCC(CCC)C(N)=O [VALPROMIDE]
[2]
  AC50: > 30 µM
[3]
  AC50: > 10 µM
Estrogen receptor
  AC50: > 30 µM
